Consider five compounds from patent publication US4632926A, “Quinazolinone derivatives which are active against coccidiosis” (priority 1982, dated 1986).

“Also recorded” adds a separate entry of the source.

Data set [1] has as its system coccidia. As to conditions: cited from earlier work.
Data set [2] deals with Eimeria tenella. In words: Coccidiostatic activity in vivo against Eimeria tenella (lesions, % control of the infection). Set-up: species or system Eimeria tenella (in Ranger pullets). As to the method:
(§1) Groups of 5 one-week-old Ranger pullets were infected each with a mixture of 5500 sporulated oocysts of Eimeria tenella and with 5000 sporulated oocysts of Eimeria acervulina.
(§2) The compound being tested was administered at the preselected dose in admixture with a poultry-feed (LD5) poor in vitamin K and containing no other additive.
(§3) The pullets were fed ad libitum with a fodder so prepared, beginning from 1 day prior to the infestation and going on for further 5 days.
(§4) As a check, there were used non-infested non-treated chickens and infested non-treated chickens.
(§5) The evaluation of the activity on Eimeria tenella was accomplished by ascertaining the presence of lesions, if any, 5 days after the infection, while the activity on Eimeria acervulina was evaluated by ascertaining the presence of oocysts, if if any, in the excrements 5 days after the infection.
(§6) The above compounds were tested for anticoccidial activity against E. tenella and E. acervulina according to the procedure hereabove described.
(§7) The activity against E. tenella was expressed as percent control of the infection at the considered dose, while the activity against E. acervulina was expressed on the basis of the presence, if any, of oocysts in the excrements and was rated as follows: […]

Data set [3] concerns Eimeria acervulina. In words: Coccidiostatic activity in vivo against Eimeria acervulina (presence of oocysts in the excrements). Set-up: species or system Eimeria acervulina (in Ranger pullets); key to E. acervulina (oocysts): A: absent; M: minimal present; P: present. As to the method: as §1, §2, §3, §4, §5, §6, §7
In data set [4] the test system is chickens. In words: Toxicity phenomena in chickens fed with the compound in poultry-feed. Type of data set: in vivo.
Data set [5] in a line: Toxicity towards poultry, LD50. As to conditions: chicken, in vivo.
Data set [6] deals with chickens. As to conditions: poultry; cited from earlier work.
In data set [7] the test system is poultry. As to conditions: background; cited from earlier work.

Consider `O=C(C[C@H]1NCCC[C@@H]1O)Cn1cnc2cc(Br)c(Cl)cc2c1=O` (relative stereo) [trans-isomer], for which the “activity of trans-isomer compared with cis isomer” value in data set [1] (trans versus cis isomer in the piperidine ring, Barringer et al. 1973) is reported as “higher activity than the corresponding cis isomer”.
On to `O=c1c2cc(Cl)c(Br)cc2ncn1CC(CC1NCCCC1O)=NO` (stereo not shown) [Compound A, reference compound], for which the “E. tenella (% control)” value amounted to 0 % control in data set [2] (3.125 ppm in feed), 0 % control in data set [2] (6.25 ppm in feed), 40 % control in data set [2] (12.5 ppm in feed) and 100 % control in data set [2] (25 ppm in feed). Moreover, the “E. acervulina (oocysts)” value in data set [3] (3.125 ppm in feed) is “P”; in data set [3] (6.25 ppm in feed), “P”; in data set [3] (12.5 ppm in feed), “P”; in data set [3] (25 ppm in feed), “M”.
Take `NN=C(CC1NCCCC1O)Cn1cnc2cc(Br)c(Cl)cc2c1=O` (stereo not shown) [Compound No. 1, 6-chloro-7-bromo-3-[3-(3-hydroxy-2-piperidyl)-acetonyl]-(3H)-quinazolin-4-one hydrazone]: the “E. tenella (% control)” value in data set [2] (3.125 ppm in feed), in data set [2] (6.25 ppm in feed), in data set [2] (12.5 ppm in feed) and in data set [2] (25 ppm in feed) was 100 % control in each case. Also, the “E. acervulina (oocysts)” value in data set [3] (3.125 ppm in feed) is “M”; in data set [3] (6.25 ppm in feed) it was “A”; in data set [3] (12.5 ppm in feed) it was “A”; in data set [3] (25 ppm in feed), “A”.
Take `CCNN=C(CC1NCCCC1OC)Cn1cnc2cc(Br)c(Cl)cc2c1=O` (stereo not shown) [Compound No. 2, 6-chloro-7-bromo-3-[3-(3-methoxy-2-piperidyl)-acetonyl]-(3H)-quinazolin-4-one ethylhydrazone]: the “E. tenella (% control)” value in data set [2] (6.25 ppm in feed), in data set [2] (12.5 ppm in feed) and in data set [2] (25 ppm in feed) was 100 % control in each case. Also, the “activity against E. tenella, result in words” value in data set [2] (dose of 12.5 ppm) was “full activity”. The “E. acervulina (oocysts)” value in data set [3] (6.25 ppm in feed) is “P”; in data set [3] (12.5 ppm in feed) it was “A”; in data set [3] (25 ppm in feed) it was “A”. For the same compound, the “activity against E. acervulina, result in words” value in data set [3] (dose of 6.25 ppm) is listed as “complete activity”. Further, the “toxicity phenomena in chickens” value in data set [4] (100 ppm in poultry-feed along the duration of the activity test) is reported as “No toxicity phenomena”. The LD50 in data set [5] is ~100 mg/kg.
Regarding `O=C(CC1NCCCC1O)Cn1cnc2cc(Br)c(Cl)cc2c1=O` (stereo not shown) [Halofuginone], the “toxicity phenomena in chickens” value in data set [4] (about 38 ppm in the poultry-feed) is given as “show phenomena of toxicity”. For the same compound, the anticoccidial activity entry in data set [1] (background, poultry, even at very low doses (practical dose 3 ppm in feed)) is “particularly active against coccidiosis in poultry; also recorded: high anticoccidial activity even at very low doses”. The LD50 in data set [6] is 17.6 mg/Kg body weight. Moreover, in data set [7], the toxicity for chickens result is reported as “very toxic for chickens”.
